The record followed here is patent publication US11096910B2, “Metabolically robust analogs of CYP-eicosanoids for the treatment of cardiac disease” (OMEICOS THERAPEUTICS GMBH, priority 2015, dated 2021).

In experiment [1] the test system is mouse neonatal primary cardiomyocyte culture. Description: Oxygen-glucose deprivation/reoxygenation injury in primary cardiomyocytes. The class given is cell-based. Conditions: for amelioration of loss of cell number: Hoechst 33342 staining; for reduction of apoptosis: caspase 3/7 activation. As for the experimental part:
In vitro ischemic injury was induced in mouse neonatal primary cardiomyocyte culture by oxygen-glucose deprivation for 18 hours and a 24 hours reoxygenation period in a humidified incubator with 5% CO2/95% air. Cardiomyocytes were incubated with the test compounds during 4 hours prior to the oxygen glucose depriviation (OGD) induction. The test compounds were also present during the OGD insult and during the 24 h-reoxygenation period. After the reoxygenation period, cell number was assessed by Hoechst 33342 staining, apoptosis was measured by determining caspase 3/7 activation, and cell membrane integrity or necrosis was measured as LDH release.
Data were expressed as mean±SD of three separate wells and individual comparisons were made with Student's t-test (SigmaPlot 9.0 program). The results were normalized to the normoxia-treated cells. Statistical significance (*) p<0.05 as compared to normoxia/DMSO-treated cells and (§) hypoxia/DMSO treated cells. Results

The test system of experiment [2] is spontaneously beating neonatal rat cardiomyocytes (NRCMs). Description: Spontaneous beating rate of neonatal rat cardiomyocytes (anti-arrhythmic cell model). The experiment is classed as cell-based. To be noted: 20 nM or 30 nM; comparison between analogs. As for the experimental part: The compounds include analogues being part of the invention (Comp-01 to Comp-05), which were synthesized as described in example 1, and additional related compounds (Comp-06 to Comp-13). A 1000-fold stock solutions in ethanol of the test compounds was prepared before use.
In order to measure the biological activities of metabolically robust analogs of CYP-eicosanoids an established cell model was used (Kang, J. X. et al., Proc Natl Acad Sci USA, 1994. 91(21): p. 9886-90). The spontaneously beating neonatal rat cardiomyocytes (NRCMs) are a model system to investigate anti-arrhythmic effects of test-compounds. […]
Isolation and cultivation of NRCMs were performed as described previously (Wallukat, G et al., J Clin Invest. 1999; 103: 945-952; Falck, J R et al., J Med Chem. 2011 Jun. 23; 54(12):4109-18). […] After four hours of incubation cells were adopted for 10 min to 31° C. and beating was recorded using an inverted microscope (Leica DM IRB) equipped with a CCD camera and coupled to an IonOptix (software: IonWizard6, IonOptix). To determine the basal rate, 6 to 8 individual clusters were selected and the number of contractions was counted for 15 sec. After that, the compound to be tested was added to the culture and the beating rate of the same clusters was monitored 5 min later again. […]

With `CCC1OC1C/C=C\C/C=C\C/C=C\C/C=C\CCCC(=O)O` (stereo not shown) [17,18-EEQ, reference compound], in experiment [1] (30 nM), the “reduction of cellular necrosis (LDH-release)” value is given as 41%, the “amelioration of loss of cell number” value was “did not significantly affect cell number” and the reduction of apoptosis entry is “not at the low concentration tested”. Moreover, in experiment [1] (10 μM), the “reduction of cellular necrosis (LDH-release)” value was found to be 37%, the “amelioration of loss of cell number” value is “did not significantly affect cell number” and the reduction of apoptosis was determined as 43%.
For `CNC(=O)C(=O)NCCCCc1ccccc1CCCCCCOCC(=O)O` [Comp-05], the “negative chronotropic effect on NRCMs, in words” value in experiment [2] was “without major loss of activity”.
